From patent publication US20260356826A1, “SALTS OF AMINO QUINAZOLINE DERIVATIVES” (CHIESI FARMACEUTICI S.P.A., priority 2023, published 2026)
Entries after “also recorded” stand apart in the source; their conditions may differ. Where a name gives a salt, the structure may show the parent alone.

Tests used:
Format in all cases: physicochemical
[1] = Formulations in 20% SBE-βCD with citrate buffer: appearance and pH
Procedure: The drug content and homogeneity of the mesylate salt Form 2 and the free base Form A of Compound A in 20% w/v SBE-PCD (Sulfobutyl-ether-β-Cyclodextrin, Captisol; CYDEX Pharmaceutical) were tested at different citrate buffer concentrations such as 0.05 M, 0.1 M, 0.5 M and 1 M, at pH 2.5. To prepare the vehicle, the proper amount of citric acid (Sigma Aldrich; CAS: 77-92-9) was dissolved in water in a volumetric flask, then the pH was increased up to 2.5 using 1M NaOH. Then water was added and brought to the final volume. SBE-PCD was weighed and added in a beaker containing the citrate buffer, then left under stirring until it was dissolved. The required volume of vehicle was added to a known amount of Compound A free base Form A or Mesylate salt Form 2, then sonicated at RT for at least 10 min. The formulation was kept under magnetic stirring for at least 10 min before analysis. The stability in terms of content uniformity and pH were evaluated for up to 8 days. The samples were kept at RT and the nominal concentration was 40 mg/ml.

[2] = Two-sector dissolution study (FaSSGF then FaSSIF), parachute effect; settings: for Estimated supersaturation duration (parachute effect): second experiment, pH adjusted to 6.5 after FaSSIF addition; for Time of precipitation: protocol of the second experiment
Procedure: The dissolution behaviour of mesylate salt Form 2 of compound A was studied in a two-sector model in comparison with free base Form A to evaluate a possible “spring-parachute effect”.
The parachute effect is observable in two-sector dissolution studies. A test compound is incubated with FaSSGF and its concentration is monitored over time. FaSSIF is then added to the solution whilst continuing the monitoring. The period of time in which the test compound remains in solution without or before precipitating refers to the supersaturation time and represents the parachute effect.
The experiment was conducted using DISS Profiler 6 Channel Pion. The free base Form A and mesylate salt Form 2 of compound A were each incubated in 8 ml of FaSSGF (pH 1.6) for 20 minutes at the concentration of 350 mg/250 ml. 16 ml of FaSSIF concentrated 1.5× (pH 6.5) was added with an incubation time of 180 minutes. The resulting target pH should be approximately 5-6. The experiment was conducted at 37 °C. The entire dissolution profile was monitored until the end of the experiment to evaluate a possible parachute effect, its duration and to evaluate the maximum solubility reached after the addition of FaSSIF.
A second experiment was conducted, with an additional step of adjusting the pH to 6.5 after FaSSIF addition. Both free base Form A and mesylate salt Form 2 of compound A were tested.
A third experiment was conducted on esylate salt Form 1 of compound A, using the same protocol of the second experiment, with free base Form A and mesylate salt Form 2 of compound A as controls. The experiment was aimed at evaluating comparatively a possible parachute effect of the esylate salt and its duration. Precipitation of the free base was observed after roughly 20 minutes, while precipitation of the esylate salt and mesylate salt were observed after 30 and 40 minutes respectively.

[3] = Stability of mesylate salt Form 2 on storage (UPLC/UV/MS and XRPD), open and closed conditions; settings: for Stability: one year; for XRPD pattern change: open and closed; for % area main peak: 0 days; for Stability (overall): regular and stressed storage conditions
Procedure: The samples were dissolved in solvent (water/ACN 40/60) at about 1 mg/mL and diluted at about 0.07 mg/mL.
Approximately 120 mg of mesylate salt Form 2 of Compound A according to Example 2 was stored in a properly labelled open amber glass vial covered with filter paper to simulate open conditions, and in a screw cap glass to simulate closed conditions. The samples were prepared such that a layer of powder was uniformly spread on the bottom of the vial. Approximately 70 mg of powder were weighed in hydroxypropyl methylcellulose (HPMC) capsules size 3 (Capsugel) and for each condition two capsules were stored. The samples were placed at RT in a desiccator with NaBr to reach about 60% RH and in a stability chamber to reach 75% RH at 40 °C. The stability of the mesylate salt Form 2 of Compound A was thereby tested in four distinct conditions: open condition at 25 °C/60% RH, closed condition at 25 °C/60% RH, open condition at 40 °C/75% RH, and closed condition at 40 °C/75% RH. At the time points 0, 14, 28, 56, 84, 168 and 365 days the corresponding samples were removed from the stability chambers. After conditioning at RT, the samples were analyzed by UPLC/UV/MS and XRPD. One or two extra samples were stored for every condition.

[4] = 20% SBE-βCD, citrate buffer 0.05 M, nominal 40 mg/ml
[5] = 20% SBE-βCD, citrate buffer 0.05 M, nominal 40 mg/ml, listed as Free base Form A
[6] = 20% SBE-βCD, citrate buffer 0.1 M, nominal 40 mg/ml
[7] = 20% SBE-βCD, citrate buffer 0.1 M, nominal 40 mg/ml, listed as Free base Form A
[8] = 20% SBE-βCD, citrate buffer 0.5 M, nominal 40 mg/ml
[9] = 20% SBE-βCD, citrate buffer 0.5 M, nominal 40 mg/ml, listed as Free base Form A
[10] = 20% SBE-βCD, citrate buffer 1 M, nominal 40 mg/ml

In the case of `COc1cc(-c2ccc(F)cn2)cc2c(N[C@H](C)c3noc(C)n3)ncnc12` [free base Form A, (R)-6-(5-fluoropyridin-2-yl)-8-methoxy-N-(1-(5-methyl-1,2,4-oxadiazol-3-yl)ethyl)quinazolin-4-amine], the Appearance [1, 4] is reported as “suspension”, the Appearance [1, 5] is reported as “Fine suspension” and the pH of formulation [1, 5] is reported as 3.1. The Appearance [1, 6] was “suspension”, the Appearance [1, 7] was “Suspension” and the pH of formulation [1, 7] was 3.5. The Appearance [1, 8] was “suspension”, the Appearance [1, 9] was “Thick suspension” and the pH of formulation [1, 9] was 3.2. For the same compound, the Time of gelification ([1]; 20% SBE-βCD, citrate buffer 1 M) was 24 h, the Appearance [1, 10] was “Solution, gel after 24 hours” and the pH of formulation [1, 10] was 3.2. For the same compound, the Time of gelification ([1]; 20% SBE-βCD, citrate buffer 1 M, listed as Free base Form A) was ≤ 24 h, the “pH after the addition of FaSSIF” value ([2]; first experiment) was 5.8 and the “Precipitation start after FaSSIF addition” value ([2]; first experiment, no pH adjustment, 37 °C) was “about 10 minutes”. The “Estimated supersaturation duration (parachute effect)” value [2] was 8 min and the Time of precipitation ([2]; third experiment) was “roughly 20 minutes”.
For `COc1cc(-c2ccc(F)cn2)cc2c(N[C@H](C)c3noc(C)n3)ncnc12` [mesylate salt Form 2, (R)-6-(5-fluoropyridin-2-yl)-8-methoxy-N-(1-(5-methyl-1,2,4-oxadiazol-3-yl)ethyl)quinazolin-4-amine], the Stability ([3]; 25 °C/60% RH closed) was “remained stable throughout the entire test period”, the Stability ([3]; 25 °C/60% RH open) was “remained stable throughout the entire test period” and the XRPD pattern change ([3]; 25 °C/60% RH) was “no significant changes”. For the same compound, the Stability ([3]; 40 °C/75% RH closed) was “remained stable throughout the entire test period”, the Stability ([3]; 40 °C/75% RH open) was “remained stable throughout the entire test period” and the XRPD pattern change ([3]; 40 °C/75% RH) was “no significant changes”. The “% area main peak” value ([3]; ES+, 25 °C/60% RH closed) was 91.6 % area, the “% area main peak” value ([3]; ES+, 25 °C/60% RH open) was 91.6 % area and the “% area main peak” value ([3]; ES+, 40 °C/75% RH closed) was 91.6 % area. The “% area main peak” value ([3]; ES+, 40 °C/75% RH open) was 91.6 % area, the “% area main peak” value ([3]; ES−, 25 °C/60% RH closed) was 100.0 % area and the “% area main peak” value ([3]; ES−, 25 °C/60% RH open) was 100.0 % area. The “% area main peak” value ([3]; ES−, 40 °C/75% RH closed) was 100.0 % area, the “% area main peak” value ([3]; ES−, 40 °C/75% RH open) was 100.0 % area and the “% area main peak” value ([3]; UV, 25 °C/60% RH closed) was 98.4 % area. The “% area main peak” value ([3]; UV, 25 °C/60% RH open) was 98.4 % area, the “% area main peak” value ([3]; UV, 40 °C/75% RH closed) was 98.4 % area and the “% area main peak” value ([3]; UV, 40 °C/75% RH open) was 98.4 % area. For the same compound, the “Stability (overall)” value [3] was “excellent stability for at least one year at RT; also recorded: remains stable in dry form for at least one year at different conditions”, the “Stability (overall)” value ([3]; listed as mesylate salt) was “stable for several months” and the Appearance [1, 4] was “Solution”. For the same compound, the pH of formulation [1, 4] was 3.0, the Appearance [1, 6] was “Solution” and the pH of formulation [1, 6] was 3.0. For the same compound, the Appearance [1, 8] was “Solution”, the pH of formulation [1, 8] was 2.8 and the Appearance [1, 10] was “Solution”. The pH of formulation [1, 10] was 2.8, the “Formulability in solution compared to free base Form A” value ([1]; 20% SBE-βCD, citrate buffers) was “better formulability in solution” and the “Gelification during the test period” value ([1]; all citrate buffer concentrations, up to 8 days, RT) was “No gelification was observed”. For the same compound, the Appearance ([1]; all concentrations of citrate buffer) was “Stable solutions”, the “pH measured at the end of the experiment” value ([2]; first experiment) was 4.5 and the “Precipitation after FaSSIF addition” value ([2]; first experiment, no pH adjustment) was “No precipitation was observed”. For the same compound, the “Estimated supersaturation duration (parachute effect)” value [2] was 14 min, the “Duration of the parachute effect compared to free base Form A” value ([2]; third experiment) was “longer duration of the parachute effect” and the Time of precipitation ([2]; third experiment) was 40 min.
